Experimental data: patent publication US8697661B2, “Use of spinosyns and spinosyn compositions against herpesviridae viral infections” (priority 2009, dated 2014)
Where two headings read alike, the source gives them in different places.

Assays:
[1] = tested on: Herpes Simplex Virus type 1, McIntyre (HSV1); assay: Viral Plaque Reduction Assay / inhibition of infection assay, HSV1 in Vero cells; format: cell-based; details: 10 μg/ml spinosad
[2] = tested on: Vero cells; assay: Toxicity assay on Vero cells; format: cell-based, African Green Monkey
[3] = tested on: Herpes Simplex Virus type 2, Strain MS-HSV2; assay: IC50 assay against HSV2 in Vero cells; format: cell-based; details: 50-100 infectious units of HSV2
[4] = tested on: murine Leukemia Virus (ATCC VR-1445); assay: Inhibition of murine Leukemia Virus in feline PG4 cells; format: cell-based; details: 10 μg/ml spinosad, virus load of 30 infectious units
[5] = tested on: H460 cells; assay: Cytotoxicity on H460 cells, ApoTox-Glo Triplex assay; format: cell-based
[6] = tested on: isolated mitochondria of H460 cells; assay: Oxygen consumption in isolated mitochondria, Seahorse XF24; format: biochemical; details: 4° C. for three hours
[7] = tested on: Plasmodium falciparum, strain 3D7; details: 2% spinosad dispersion in DMSO
[8] = tested on: macrophage mice cell type J774; details: read-out: Cytotoxicity CC50; J774
[9] = tested on: leishmania donovati
[10] = tested on: BxPC-3 Human pancreatic adenocarcinoma; details: for Cell Survival (% of Control; mean ± S.D.): 24-hour exposure, 24 h post end of exposure
[11] = tested on: DU 145 Human prostatic carcinoma cells; details: for Cell Survival (% of Control; mean ± S.D.): 24-hour exposure, 24 h post end of exposure
[12] = tested on: PC-3 Human prostatic adenocarcinoma cells; details: for Cell Survival (% of Control; mean ± S.D.): 24-hour exposure, 24 h post end of exposure
[13] = tested on: MDA-MB-231 Human breast adenocarcinoma cells; details: for Cell Survival (% of Control; mean ± S.D.): 24-hour exposure, 24 h post end of exposure
[14] = tested on: PC-3 Human prostatic adenocarcinoma cells; assay: Cell proliferation assay, PC-3; details: 24 hours of exposure (control 3.22)
Procedure: (§1) Cell Proliferation assay: for each cell line, cell suspensions ranging in concentration of approximately 2-5×10^5 cells/mL of growth medium were prepared. 1 mL of each of these suspensions was aseptically transferred to a sterile tissue culture flask (12.5 or 25 cm^2) containing fresh growth medium. Three flasks (triplicate) were used for each group, and for each time point of viable cell number/mL measurement at 1, 3 and 5 days post-treatment (9 dishes per group in total). The cells were incubated and allowed to adhere to the bottom of the flasks and proliferate.
(§2) After approximately 24 hours of exposure to treatments, dosing media was replaced with fresh growth media and cells were returned to the incubator and allowed to proliferate.
(§3) Assessment of Cell Proliferation: For each cell line, measurement of viable cell number/mL was performed as already described above. This measurement was performed in triplicate from three flasks per group, at 1, 3 and 5 days post-removal of treatment.

[15] = tested on: BxPC-3 Human pancreatic adenocarcinoma; assay: Cell proliferation assay, BxPC-3; details: 24 hours of exposure (control 3.02)
Procedure: as §1, §2, §3

[16] = tested on: DU 145 Human prostatic carcinoma cells; assay: Cell proliferation assay, DU 145; details: for Cell Number Doubling Time: 24 hours of exposure (control 2.17)
Procedure: as §1, §2, §3

[17] = tested on: MDA-MB-231 Human breast adenocarcinoma cells; assay: Cell proliferation assay, MDA-MB-231; details: for Cell Number Doubling Time: 24 hours of exposure (control 3.11)
Procedure: as §1, §2, §3

[18] = tested on: Leishmania donovati MON-2 promastigotes; assay: In vitro test against Leishmania promastigotes; details: read-out: Promastigotes IC50; stationary-phase promastigotes, 26° C.
[19] = tested on: BxPC-3, DU 145, PC-3 and MDA-MB-231; assay: Cell proliferation assay, all cell lines tested; details: low dose level 5 μg/mL
Procedure: as §1, §2, §3

[20] = tested on: Cytomegalovirus, Davis Strain-CMV; assay: Inhibition of Cytomegalovirus in HS27 fibroblasts; details: 4.75 μg/ml spinosad, virus load of 50-100 infectious units, HS27 cells
[21] = tested on: Plasmodium falciparum 3D7 rings and trophozoites; assay: Susceptibility of different stages of P. falciparum; details: 3D7 parasites, 48 h, 1% initial parasitemia
[22] = tested on: Herpes Simplex Virus 1 McIntyre (HSV1); assay: IC50 assay against HSV1 in Vero cells (cytopathic effect); details: 100 infectious units of Herpes Simplex 1, up to 5 days
Procedure: We performed an IC50 assay, in which the amount of virus in the quadruplicate assay wells is identical, and the concentration of drug varies over a range of ten concentrations. This assay was performed in a 48 well tissue culture dish, each well containing the appropriate cell line at approximately 90% confluence. […] Approximately 100 infectious units per well were added to each test well. Cells, HSV1 virus and drug are incubated for up to 5 days and cytopathic effect is determined.

[23] = tested on: Leishmania donovati MON-2 amastigotes; assay: In vitro test against Leishmania amastigotes in J774 macrophages; details: read-out: Amastigotes IC50; infected J774 macrophages
[24] = tested on: Plasmodium falciparum; assay: ATP levels in the Plasmodium parasite, luciferin/luciferase assay
[25] = spinosad 10 μg/mL, succinate substrate
[26] = spinosad 20 μg/mL, succinate substrate
[27] = spinosad 40 μg/mL, succinate substrate
[28] = spinosad 80 μg/mL, succinate substrate
[29] = BxPC-3, 24 h post end of 24-hour exposure
[30] = DU 145, 24 h post end of 24-hour exposure
[31] = PC-3, 24 h post end of 24-hour exposure
[32] = MDA-MB-231, 24 h post end of 24-hour exposure

Spinosad
inhibition of approximately 20 infectious units of the HSV1 virus [1]: 100% | inhibition of higher virus loads ([1]; more than approximately 20 infectious units): not inhibited | state of treated cell monolayer [2]: healthy | toxicity against Vero cells [2]: no toxicity | IC50 [3]: about 5 μg/ml | IC100 [3]: about 11.5 μg/ml | inhibition of virus [4]: no inhibition | cytotoxicity ([5]; 20 μg/mL spinosad, 3 hours of treatment): no cytotoxicity | concentration above which cell viability decreases ([5]; three hours of treatment): higher than 20 μg/mL | ADP stimulation ([6]; 20 μg of spinosad): slight increase | spinosad concentration above which mitochondrial integrity is reduced ([6]; succinate substrate): above 40 μg/mL | State III respiration (numerator of RCR) [6, 25]: 711 | State IV respiration (denominator of RCR) [6, 25]: 300 | State III respiration (numerator of RCR) [6, 26]: 726 | State IV respiration (denominator of RCR) [6, 26]: 330 | State III respiration (numerator of RCR) [6, 27]: 666 | State IV respiration (denominator of RCR) [6, 27]: 430 | State III respiration (numerator of RCR) [6, 28]: 598 | State IV respiration (denominator of RCR) [6, 28]: 500 | IC50 [7]: about 0.625 μg/ml | CC50 [8]: 42.6 ± 17.3 µM | elimination of parasites in spleen ([9]; BALB/c female mice, 31.6 mg/kg intraperitoneally daily for 14 consecutive days in DMSO, from two weeks post infection, P=0.05): 82% | elimination of parasites in the liver ([9]; BALB/c female mice, 31.6 mg/kg intraperitoneally daily for 14 consecutive days in DMSO, P=0.083): 73% | impact on liver and spleen weight ([9]; BALB/c mice, 31.6 mg/kg i.p. 14 days, Mann-Whitney test): no impact | signs of toxicity ([9]; BALB/c mice, treatment period of 14 days): No sign of toxicity | Calculated LC50 [10, 29]: 11.1 µg/mL | Calculated LC100 [10, 29]: 31.6 µg/mL | Cell Survival (% of Control; mean ± S.D.) ([10]; BxPC-3, spinosad 10 μg/mL): 54.1 ± 9.8 % of Control | Cell Survival (% of Control; mean ± S.D.) ([10]; BxPC-3, spinosad 20 μg/mL): 25.5 ± 2.6 % of Control | Cell Survival (% of Control; mean ± S.D.) ([10]; BxPC-3, spinosad 30 μg/mL): 5.3 ± 2.6 % of Control | Calculated LC50 [11, 30]: 12.5 µg/mL | Calculated LC100 [11, 30]: 32.8 µg/mL | Cell Survival (% of Control; mean ± S.D.) ([11]; DU 145, spinosad 10 μg/mL): 56.8 ± 3.1 % of Control | Cell Survival (% of Control; mean ± S.D.) ([11]; DU 145, spinosad 20 μg/mL): 30.2 ± 4.5 % of Control | Cell Survival (% of Control; mean ± S.D.) ([11]; DU 145, spinosad 30 μg/mL): 7.6 ± 4.1 % of Control | Calculated LC50 [12, 31]: 13.3 µg/mL | Calculated LC100 [12, 31]: 34.2 µg/mL | Cell Survival (% of Control; mean ± S.D.) ([12]; PC-3, spinosad 10 μg/mL): 53.8 ± 8.0 % of Control | Cell Survival (% of Control; mean ± S.D.) ([12]; PC-3, spinosad 20 μg/mL): 42.0 ± 9.5 % of Control | Cell Survival (% of Control; mean ± S.D.) ([12]; PC-3, spinosad 30 μg/mL): 5.9 ± 2.5 % of Control | Calculated LC50 [13, 32]: 13.4 µg/mL | Calculated LC100 [13, 32]: 36.7 µg/mL | Cell Survival (% of Control; mean ± S.D.) ([13]; MDA-MB-231, spinosad 10 μg/mL): 56.1 ± 13.7 % of Control | Cell Survival (% of Control; mean ± S.D.) ([13]; MDA-MB-231, spinosad 20 μg/mL): 38.0 ± 5.7 % of Control | Cell Survival (% of Control; mean ± S.D.) ([13]; MDA-MB-231, spinosad 30 μg/mL): 13.2 ± 1.4 % of Control | Cell Number Doubling Time ([14]; PC-3, spinosad 5 μg/mL): 4.17 days | Cell Number Doubling Time ([14]; PC-3, spinosad 10 μg/mL): 5.55 days | Cell Number Doubling Time ([14]; PC-3, spinosad 15 μg/mL): 6.24 days | Cell Number Doubling Time ([15]; BxPC-3, spinosad 5 μg/mL): 3.86 days | Cell Number Doubling Time ([15]; BxPC-3, spinosad 10 μg/mL): 4.76 days | Cell Number Doubling Time ([15]; BxPC-3, spinosad 15 μg/mL): 6.25 days | Cell Number Doubling Time ([16]; DU 145, spinosad 5 μg/mL): 2.89 days | Cell Number Doubling Time ([16]; DU 145, spinosad 10 μg/mL): 2.83 days | Cell Number Doubling Time ([16]; DU 145, spinosad 15 μg/mL): 3.18 days | cell number doubling time from 3 days post-treatment increased by ([16]; high dose level 15 μg/mL, DU 145): approximately 46.5% | Cell Number Doubling Time ([17]; MDA-MB-231, spinosad 5 μg/mL): 3.99 days | Cell Number Doubling Time ([17]; MDA-MB-231, spinosad 10 μg/mL): 5.09 days | Cell Number Doubling Time ([17]; MDA-MB-231, spinosad 15 μg/mL): 7.13 days | cell number doubling time from 3 days post-treatment increased by ([17]; high dose level 15 μg/mL, MDA-MB-231): approximately 129.3% | IC50 [18]: 9.5 ± 3.8 µM | cell number doubling time from 3 days post-treatment increased by [19]: 27.8-33.2% | inhibition of virus [20]: no inhibition | activity against rings versus trophozoites [21]: same activity against both rings and trophozoites | IC50 [22]: about 17.42 μg/ml | IC50 [23]: 9 ± 3 µM | ATP levels in the parasite ([24]; albumin-containing medium (RPMI-1640), within erythrocytes and after isolation, spinosad 5-10 μg/ml in DMSO): reduces | ATP levels in the parasite ([24]; isolated parasites in saline/spinosad medium (absence of albumin)): unaffected
